According to patent publication US7728012B2, “Carboxamide compounds and their use as calpain inhibitors” (Abbott GmbH & Co. KG, priority 2006, dated 2010):

Legend:
Assay type in all cases: biochemical
[1] = molecular target: T1, cathepsin L isolated from human liver (Homo sapiens, UniProt P07711); assay: Cathepsin L kinetic fluorescence enzyme inhibition assay; settings: selectivity ratio versus calpain I
T1 construct: cathepsin L—isolated from human liver; purchased Calbiochem 219402; host or cells: human liver (tissue isolate)
T1 sequence (P07711 114-333): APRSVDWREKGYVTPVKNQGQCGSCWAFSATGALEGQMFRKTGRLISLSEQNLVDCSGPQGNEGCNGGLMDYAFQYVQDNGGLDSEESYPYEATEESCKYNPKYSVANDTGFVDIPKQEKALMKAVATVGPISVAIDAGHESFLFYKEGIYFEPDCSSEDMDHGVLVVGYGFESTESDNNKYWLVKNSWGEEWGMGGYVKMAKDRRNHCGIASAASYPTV
Protocol: (§1) The following solutions and buffers were employed: • HBS (for 40 ml): 800 μl M HEPES; 2.16 ml 100 mM KCl; 4.8 ml 1M NaCl; 3.59 ml 5% glucose; 60 μl μM MgSO4; 400 μl 100 mM Na pyruvate, 28.19 ml water; pH 7.2-7.5. • lysis buffer (for 20 ml): 400 μl M Tris pH 8.2; 2.74 ml 1M NaCl; 520 μl 0.5M EDTA; 2 ml 10% triton X-100; 0.8 ml (=1:25) CompletePlus (1 tablet/2 ml H2O); 200 μl 100 mM Pefabloc; 13.34 ml water, pH 8.2. • TBST (10×) (for 1 l): 100 mM Tris (12.1 g); 1.5M NaCl (87 g); 1% Tween 20 (10 g), adjusted to pH 8. I Enzyme Inhibition In Vitro: • Testing for blockade of the corresponding enzymic activities was carried out by means of kinetic fluorescence assays (excitation 390 nm, emission 460 nm). • Apparent Ki values were calculated from the experimentally determined IC50 values by the Cheng-Prussoff relation assuming a reversible competitive enzyme inhibition. The Km values of the substrates used under the assay conditions indicated above were: 90 μM (Z-Phe-Arg-AMC, cathepsin B), 10 μM (Z-Gly-Pro-Arg-AMC, cathepsin K), 2 μM (Z-Phe-Arg-AMC, cathepsin L), and 30 μM (Z-Val-Val-Arg-AMC, cathepsin S). • The indicated Ki values are averages of the inhibition constants calculated on the basis of 2 to 4 independent dose-effect plots.
(§2) The following assays were used: • 1. Calpain I: • 20 nM calpain-I—isolated from human erythrocytes (Calbiochem #208713), 100 μM Suc-Leu-Tyr-AMC (Bachem #1-1355) as substrate in buffer with 62 mM imidazole, 0.3 mM CaCl2, 0.10% CHAPS, 0.05% BSA, 1 mM DTT at pH 7.3 and room temperature. • 2. Cathepsin B: • 0.25 nM cathepsin B—isolated from human liver (Calbiochem #219362), 100 μM Z-Phe-Arg-AMC (Bachem #I-1160) as substrate 50 mM MES, 2 mM EDTA, 0.05% Brij 35, 2.5 mM L-cysteine, pH 6.0, room temperature. • 3. Cathepsin K: • 3 nM cathepsin K—activated from recombinant human procathepsin K from E. coli (Calbiochem #342001), 10 μM Z-Gly-Pro-Arg-AMC (Biomol #P-142) as substrate in 50 mM MES, 2 mM EDTA, 0.05% Brij 35, 2.5 mM L-cysteine, pH 6.0, room temperature. • 4. Cathepsin L: • 1 nM cathepsin L—isolated from human liver (Calbiochem #219402), 2 μM Z-Phe-Arg-AMC (Bachem #1-1160) as substrate in 50 mM MES, 2 mM EDTA, 0.05% Brij 35, 2.5 mM L-cysteine, pH 6.0, room temperature. • 5. Cathepsin S: • 0.5 nM recombinant human cathepsin S from E. coli (Calbiochem #219343), 20 μM Z-Val-Val-Arg-AMC (Bachem #1-1540) as substrate in 50 mM MES, 2 mM EDTA, 0.05% Brij 35, 2.5 mM L-cysteine, pH 6.0, room temperature. • The results of the in vitro determination are indicated in Table 1. The following abbreviations are used in Table 1: • The “Calpain activity” column, ++ stands for a calpain Ki (Ki(calpain)) of ≦40 nM and + means: 40 nM<Ki(Calpain)≦100 nM. • The “Sel. cat. B” column indicates the Ki(cathepsin B)/Ki(calpain) ratio. In this connection, ++ means a Ki(cathepsin B)/Ki(calpain) ratio of ≧30 and + means 10≦Ki(cathepsin B)/Ki(calpain)<30. • The “Sel. cat. K” column indicates the Ki(cathepsin K)/Ki(calpain) ratio. In this connection, ++ means a Ki(cathepsin K)/Ki(calpain) ratio of ≧30 and + means 10≦Ki(cathepsin K)/Ki(calpain)<30. • The “Sel. cat. L” column indicates the Ki(cathepsin L)/Ki(calpain) ratio. In this connection, ++ means a Ki(cathepsin L)/Ki(calpain) ratio of ≧50 and + means 30≦Ki(cathepsin L)/Ki(calpain)<50. • The “Sel. cat. S” column indicates the Ki(cathepsin S)/Ki(calpain) ratio. In this connection, ++ means a Ki(cathepsin S)/Ki(calpain) ratio of ≧100 and + means 50≦Ki(cathepsin S)/Ki(calpain)<100.

[2] = molecular target: T2, calpain-I isolated from human erythrocytes (Homo sapiens, UniProt P07384); assay: Calpain I kinetic fluorescence enzyme inhibition assay; settings: apparent Ki from IC50 by Cheng-Prussoff; average of 2 to 4 dose-effect plots
T2 construct: calpain-I—isolated from human erythrocytes; purchased Calbiochem 208713; host or cells: human erythrocytes (tissue isolate)
T2 sequence (P07384 1-714): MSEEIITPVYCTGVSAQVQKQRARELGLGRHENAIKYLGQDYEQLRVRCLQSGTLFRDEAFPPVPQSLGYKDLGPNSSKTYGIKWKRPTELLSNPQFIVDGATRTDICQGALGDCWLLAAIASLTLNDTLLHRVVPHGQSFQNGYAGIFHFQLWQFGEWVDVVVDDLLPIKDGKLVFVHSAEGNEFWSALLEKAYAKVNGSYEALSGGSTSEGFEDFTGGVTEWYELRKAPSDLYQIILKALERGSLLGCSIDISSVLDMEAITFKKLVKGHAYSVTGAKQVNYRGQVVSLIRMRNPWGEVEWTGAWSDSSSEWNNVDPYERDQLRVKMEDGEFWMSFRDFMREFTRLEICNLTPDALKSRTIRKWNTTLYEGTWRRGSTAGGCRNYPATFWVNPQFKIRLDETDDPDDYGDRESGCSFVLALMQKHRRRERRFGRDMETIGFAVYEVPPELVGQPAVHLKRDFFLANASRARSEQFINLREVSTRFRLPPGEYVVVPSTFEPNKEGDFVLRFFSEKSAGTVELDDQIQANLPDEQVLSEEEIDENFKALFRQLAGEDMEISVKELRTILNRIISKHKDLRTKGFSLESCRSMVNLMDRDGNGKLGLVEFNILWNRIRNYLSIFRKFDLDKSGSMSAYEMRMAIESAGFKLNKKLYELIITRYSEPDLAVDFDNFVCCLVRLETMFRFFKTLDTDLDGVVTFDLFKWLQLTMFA
T2 sequence (P04632 1-268 partner): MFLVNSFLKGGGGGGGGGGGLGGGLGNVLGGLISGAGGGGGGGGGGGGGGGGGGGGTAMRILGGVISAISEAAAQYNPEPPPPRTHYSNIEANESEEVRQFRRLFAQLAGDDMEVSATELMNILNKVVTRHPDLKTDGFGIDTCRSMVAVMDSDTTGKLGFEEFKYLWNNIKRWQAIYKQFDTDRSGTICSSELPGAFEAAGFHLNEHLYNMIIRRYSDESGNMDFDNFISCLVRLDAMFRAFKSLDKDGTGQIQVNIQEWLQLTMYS
Protocol: as §1, §2

[3] = molecular target: T3, recombinant human cathepsin S (Homo sapiens, UniProt P25774); assay: Cathepsin S kinetic fluorescence enzyme inhibition assay; settings: selectivity ratio versus calpain I
T3 construct: purchased Calbiochem 219343; host or cells: E. coli
T3 sequence (P25774 115-331): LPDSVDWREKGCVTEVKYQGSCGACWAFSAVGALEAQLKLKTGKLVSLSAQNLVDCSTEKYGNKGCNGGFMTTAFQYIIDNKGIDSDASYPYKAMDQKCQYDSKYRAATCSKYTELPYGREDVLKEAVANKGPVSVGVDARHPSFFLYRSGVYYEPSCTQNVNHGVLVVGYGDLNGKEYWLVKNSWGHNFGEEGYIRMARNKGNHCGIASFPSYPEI
Protocol: as §1, §2

| Structure (SMILES) | Ki [2] [nM] | Sel cat. L (Ki(cathepsin L)/Ki(calpain) ratio) [1] | Sel cat. S (Ki(cathepsin S)/Ki(calpain) ratio) [3] |
| --- | --- | --- | --- |
| NC(=O)C(=O)C(Cc1ccccc1)NC(=O)c1cccnc1-n1cc(CN2CCOCC2)c(-c2cccc(C(F)(F)F)c2)n1 (centres unmarked) [Example 177, N-[3-Amino-2,3-dioxo-1-(phenylmethyl)propyl]-2-{4-(morpholin-4-ylmethyl)-3-[3-(trifluoromethyl)phenyl]-1H-pyrazol-1-yl}pyridine-3-carboxamide] | 40 to 100 |  | ++ (Ki(cathepsin S)/Ki(calpain) ratio of ≧100) |
| NC(=O)C(=O)C(Cc1ccccc1)NC(=O)c1cccnc1-n1cnc(-c2ccc(N3CCOCC3)cc2)c1 (centres unmarked) [Example 14, N-(3-Amino-1-benzyl-2,3-dioxopropyl)-2-[4-(4-morpholin-4-ylphenyl)-1H-imidazol-1-yl]nicotinamide] | 40 to 100 |  | ++ (Ki(cathepsin S)/Ki(calpain) ratio of ≧100) |
| Cl.NC(=O)C(=O)C(Cc1ccccc1)NC(=O)c1cccnc1-n1ccc(-c2cccc(CN3CCOCC3)c2)n1 (centres unmarked) [Example 52, N-(3-Amino-1-benzyl-2,3-dioxopropyl)-2-{3-[3-(morpholin-4-ylmethyl)phenyl]-1H-pyrazol-1-yl}nicotinamide hydrochloride] | 40 to 100 |  | ++ (Ki(cathepsin S)/Ki(calpain) ratio of ≧100) |
| CCN(CC)Cc1ccc(-c2ccn(-c3ncccc3C(=O)NC(Cc3ccccc3)C(=O)C(N)=O)n2)cc1.Cl (centres unmarked) [Example 43, N-(3-Amino-1-benzyl-2,3-dioxopropyl)-2-(3-{4-[(diethylamino)methyl]phenyl}-1H-pyrazol-1-yl)nicotinamide hydrochloride] | 40 to 100 |  | ++ (Ki(cathepsin S)/Ki(calpain) ratio of ≧100) |
| NC(=O)C(=O)C(Cc1ccccc1)NC(=O)c1cccnc1-n1cc(CCN2CCOCC2)c(-c2ccc(F)cc2)n1 (centres unmarked) [Example 165, N-[3-Amino-2,3-dioxo-1-(phenylmethyl)propyl]-2-[3-(4-fluorophenyl)-4-(2-morpholin-4-ylethyl)-1H-pyrazol-1-yl]pyridine-3-carboxamide] | 40 to 100 |  | ++ (Ki(cathepsin S)/Ki(calpain) ratio of ≧100) |
| CCCCC(NC(=O)c1cccnc1-n1ccc(-c2ccc(CN3CCOCC3)cc2)n1)C(=O)C(N)=O (centres unmarked) [Example 45, N-{1-[Amino(oxo)acetyl]pentyl}-2-{3-[4-(morpholin-4-ylmethyl)phenyl]-1H-pyrazol-1-yl}nicotinamide] | ≤ 40 |  | + (50≦Ki(cathepsin S)/Ki(calpain)<100) |

Continued, in another order:

| Ki [2] [nM] | Structure (SMILES) | Sel cat. L (Ki(cathepsin L)/Ki(calpain) ratio) [1] | Sel cat. S (Ki(cathepsin S)/Ki(calpain) ratio) [3] |
| --- | --- | --- | --- |
| ≤ 40 | Cc1cn(-c2ncccc2C(=O)NC(Cc2ccccc2)C(=O)C(N)=O)nc1-c1ccccc1 (centres unmarked) [Example 86, N-[3-Amino-2,3-dioxo-1-(phenylmethyl)propyl]-2-(4-methyl-3-phenyl-1H-pyrazol-1-yl)pyridine-3-carboxamide] | ++ (Ki(cathepsin L)/Ki(calpain) ratio of ≧50) |  |
| ≤ 40 | CCCCC(NC(=O)c1cccnc1-n1ccc(-c2ccc(CN(CC)CC)cc2)n1)C(=O)C(N)=O (centres unmarked) [Example 44, N-{1-[Amino(oxo)acetyl]pentyl}-2-(3-{4-[(diethylamino)methyl]phenyl}-1H-pyrazol-1-yl)nicotinamide] |  | + (50≦Ki(cathepsin S)/Ki(calpain)<100) |
| ≤ 40 | CCCCC(NC(=O)c1cccnc1-n1ccc(-c2ccc(N(CC)CC)cc2)n1)C(=O)C(N)=O (centres unmarked) [Example 47, N-{1-[Amino(oxo)acetyl]pentyl}-2-{3-[4-(diethylamino)phenyl]-1H-pyrazol-1-yl}nicotinamide] |  | ++ (Ki(cathepsin S)/Ki(calpain) ratio of ≧100) |
| ≤ 40 | NC(=O)C(=O)C(Cc1ccccc1)NC(=O)c1cccnc1-n1cc(-c2ccccc2F)cn1 (centres unmarked) [Example 104, N-[3-Amino-2,3-dioxo-1-(phenylmethyl)propyl]-2-[4-(2-fluorophenyl)-1H-pyrazol-1-yl]pyridine-3-carboxamide] |  | + (50≦Ki(cathepsin S)/Ki(calpain)<100) |
| ≤ 40 | NC(=O)C(=O)C(Cc1ccccc1)NC(=O)c1cccnc1-n1ccc(-c2ccc(-n3ccnc3)cc2)n1 (centres unmarked) [Example 101, N-[3-Amino-2,3-dioxo-1-(phenylmethyl)propyl]-2-{3-[4-(1H-imidazol-1-yl)phenyl]-1H-pyrazol-1-yl}pyridine-3-carboxamide] |  | ++ (Ki(cathepsin S)/Ki(calpain) ratio of ≧100) |
| ≤ 40 | CCCCC(NC(=O)c1cccnc1-n1ccc(-c2ccccc2)n1)C(=O)C(N)=O (centres unmarked) [Example 6, N-{1-[Amino(oxo)acetyl]pentyl}-2-(3-phenyl-1H-pyrazol-1-yl)nicotinamide] |  | + (50≦Ki(cathepsin S)/Ki(calpain)<100) |
| ≤ 40 | CCN(CC)c1ccc(-c2ccn(-c3ncccc3C(=O)NC(Cc3ccccc3)C(=O)C(N)=O)n2)cc1 (centres unmarked) [Example 42, N-(3-Amino-1-benzyl-2,3-dioxopropyl)-2-{3-[4-(diethylamino)phenyl]-1H-pyrazol-1-yl}nicotinamide] |  | ++ (Ki(cathepsin S)/Ki(calpain) ratio of ≧100) |
